The target of data set [1] is T1, S1PR1 (Homo sapiens, UniProt P21453).
T1 construct: expressed in transfected cells
As to the kind of experiment: In vitro S1PR1 agonistic activity, PathHunter cell line, chemiluminescent detection. The following applies: for EC50: 90-180 min at 37° C.; for Emax: % activity vs maximum control ligand. The class given is cell-based. The method, then:
Test Embodiment 1: In Vitro Evaluation of the Agonistic Activity of the Compounds of the Present Disclosure on S1PR1
Experimental objective: to detect the agonistic activity of compounds on S1PR1
I. Cell Treatment • 1. A PathHunter cell line was thawed according to standard procedures; • 2. the cells were inoculated in a 20 μL 384-well microplate and incubated at 37° C. for appropriate time.
II. Agonist • 1. For agonist determination, cells were incubated with samples to be tested to induce a reaction; • 2. a storage solution to be tested was 5-fold diluted into a buffer; • 3. 5 μL of the 5-fold dilution was added to the cells and incubated at 37° C. for 90-180 minutes. The vehicle concentration was 1%.
III. Signal Detection • 1. 12.5 μL or 15 μL of PathHunter detection reagent at a volume ratio of 50% was added at a time, and then incubated at room temperature for 1 hour to generate a detection signal; • 2. the microplate was read with a PerkinElmer Envision™ instrument for chemiluminescent signal detection.
IV. Data Analysis • 1. Activity analysis of the compound was carried out by using CBIS data analysis kit (ChemInnovation, CAA); • 2. calculation formula: % activity=100%×(average test sample RLU−average vehicle RLU)/(average maximum control ligand−average vehicle RLU)

Data set [2] is described as follows: Pharmacokinetic evaluation in SD rats (intravenous and oral). The class given is in vivo. The following applies: male, Sprague-Dawley, plasma, SD rat; for Cmax / bioavailability: intravenous 1.0 mg/kg; for Cmax: oral 2.0 mg/kg (route of Cmax not stated), read-out: Peak concentration Cmax; for bioavailability: oral 2.0 mg/kg, read-out: Bioavailability F; for clearance / Vd: intravenous injection 1.0 mg/kg (oral 2.0 mg/kg); for clearance: read-out: Clearance rate CL; for Vd: read-out: Tissue distribution Vdss; for AUC(0-t) / half-life: oral administration 2.0 mg/kg; for AUC(0-t): read-out: Area under the drug-time curve AUC0-last PO; for half-life: read-out: Half-life T1/2 (PO) (converted). The method, then:
Test Embodiment 3: Pharmacokinetic Evaluation of Compound in Rats
Experimental objective: to test the pharmacokinetics of the compound in SD rats
Sprague Dawley rat (male, 200-300 g, 7-9 weeks old, Shanghai SLAC)
A standard protocol was used to test the pharmacokinetic characteristics of rodents after intravenous injection and oral administration of the compound. In the experiment, the candidate compound was prepared into a clear solution, and administrated to rats by single intravenous injection and oral administration. The vehicle for intravenous injection was a 5:95 DMSO and 10% hydroxypropyl cyclodextrin aqueous solution, and the vehicle for oral administration was a 0.5% w/v methylcellulose and 0.2% w/v tween 80 aqueous solution. Whole blood samples within 24 hours were collected, centrifuged at 3000 g for 15 minutes, and the supernatant was separated to obtain plasma samples. 4-fold volume of acetonitrile solution containing internal standard was added thereto to precipitate protein. The mixture was centrifuged, and the supernatant was taken, and an equal volume of water was added thereto. Then the mixture was centrifuged and the supernatant was taken for injection. The blood drug concentration was quantitatively analyzed by LC-MS/MS analysis method, and pharmacokinetic parameters, such as peak concentration, clearance rate, half-life, area under the drug-time curve and bioavailability, were calculated.

SMILES strings stand for the structures. Where a name gives a salt, the structure may show the parent alone.

T1 sequence (P21453 whole entry): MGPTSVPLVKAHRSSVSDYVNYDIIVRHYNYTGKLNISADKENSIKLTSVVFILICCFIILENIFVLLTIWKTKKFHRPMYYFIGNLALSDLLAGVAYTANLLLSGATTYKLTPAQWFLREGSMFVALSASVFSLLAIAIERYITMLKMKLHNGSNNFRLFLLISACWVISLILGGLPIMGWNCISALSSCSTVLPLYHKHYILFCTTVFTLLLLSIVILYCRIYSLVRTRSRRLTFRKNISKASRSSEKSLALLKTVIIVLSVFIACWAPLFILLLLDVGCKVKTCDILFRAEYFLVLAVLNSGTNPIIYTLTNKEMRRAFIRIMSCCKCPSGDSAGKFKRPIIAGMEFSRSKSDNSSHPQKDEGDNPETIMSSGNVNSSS

What is called EC50 is the concentration at which the effect is half-maximal. A lower EC50 goes with an effect from little substance. What is called Emax is the greatest response seen or fitted, relative to the assay's reference. In data set [1], `COCC(=O)N1CCC2(CCc3c(-c4noc(-c5ccc(OC(C)C)c(C#N)c5)n4)cccc32)C1` (stereo not shown) [Compound 3] yielded an EC50 of 0.129 nM and an Emax of 88.6%.

As to `CC(C)Oc1ccc(-c2nc(-c3cccc4c3CCC43CCN(C(=O)CC#N)C3)no2)cc1C#N` (stereo not shown) [Compound 4], in data set [1], the concentration for a half-maximal effect (EC50) came to 0.107 nM and the maximal response (Emax) worked out at 99.4%.

In data set [1], `CC(C)Oc1ccc(-c2nc(-c3cccc4c3CCC43CCN(C(=O)CCC(=O)O)C3)no2)cc1C#N` (stereo not shown) [Compound 5] registered an EC50 of 0.0688 nM and a maximum response (Emax) of 85.1%.

As for `CC(C)Oc1ccc(-c2nc(-c3cccc4c3CCC43CCN(C(=O)CS(C)(=O)=O)C3)no2)cc1C#N` (stereo not shown) [Compound 7], in data set [1], a half-maximal response (EC50) required 0.123 nM and the Emax came to 90.7%.

Consider `N#Cc1cc(-c2nc(-c3cccc4c3CCC43CCN(C(=O)CO)C3)no2)ccc1OC1CCCC1` (stereo not shown) [Compound 9], for which, in data set [1], the response was half-maximal at 2.15 nM (EC50) and the Emax was found to be 75.8%.

In the case of `CC(C)Oc1ccc(-c2nc(-c3cccc4c3CCC43CCN(C(=O)CO)C3)no2)cc1Br` (stereo not shown) [Compound 10], in data set [1], a half-maximal effect (EC50) was put at 1.31 nM and the maximal response (Emax) is 101%.

Regarding `CC(C)Oc1ccc(-c2nc(-c3cccc4c3CCC43CCN(C(=O)CO)C3)no2)cc1Cl` (stereo not shown) [Compound 11], in data set [1], the EC50 was found to be 1.78 nM and the maximum response (Emax) worked out at 84.6%.

On to `CC(C)Oc1ccc(-c2nc(-c3cccc4c3CCC43CCN(C(=O)CO)C3)no2)cc1C(F)F` (stereo not shown) [Compound 12], for which, in data set [1], the EC50 came to 0.477 nM and the maximal effect (Emax) is 87.6%.

In data set [1], `CC(C)Nc1ncc(-c2nc(-c3cccc4c3CCC43CCN(C(=O)CO)C3)no2)cc1C#N` (stereo not shown) [Compound 13] returned an EC50 of 10.7 nM and an Emax of 77.8%.

As to `CC(C)Oc1ccc(-c2ncc(-c3cccc4c3CCC43CCN(C(=O)CO)C3)s2)cc1C#N` (stereo not shown) [Compound 14], in data set [1], the midpoint of the response, the EC50, lay at 1.59 nM and the Emax is 82.2%.

On to `CC(C)Oc1ccc(-c2nnc(-c3cccc4c3CCC43CCN(C(=O)CO)C3)s2)cc1C#N` (stereo not shown) [Compound 15], for which, in data set [1], the EC50 was determined as 2.2 nM and the maximal response (Emax) is 98.9%.

In data set [1], `CC(C)Oc1ccc(-c2nsc(-c3cccc4c3CCC43CCN(C(=O)CO)C3)n2)cc1C#N` (stereo not shown) [Compound 16] had an EC50 of 14.4 nM and an Emax of 77.8%.

For the compound `N#Cc1cc(-c2nc(-c3cccc4c3CCC43CCN(C(=O)CO)C3)no2)ccc1OC(F)F` (stereo not shown) [Compound 17], in data set [1], the EC50 is 8.59 nM and the maximal effect (Emax) came out at 80.8%.

In data set [1], `CC(C)Oc1ccc(-c2ncc(-c3cccc4c3CCC43CCN(C(=O)CO)C3)cn2)cc1C#N` (stereo not shown) [Compound 18] returned an EC50 of 4.06 nM and a maximal response (Emax) of 84.2%.

In data set [1], `CC(C)Oc1ccc(-c2cnc(-c3cccc4c3CCC43CCN(C(=O)CO)C3)cn2)cc1C#N` (stereo not shown) [Compound 19] returned a concentration for a half-maximal effect (EC50) of 3.25 nM and an Emax of 77.8%.

In data set [1], `CC(C)Oc1ccc(-c2nc(-c3cccc4c3CCC43CCN(C(=O)CO)C3)ns2)cc1C#N` (stereo not shown) [Compound 20] had an EC50 of 9.39 nM and a maximal effect (Emax) of 90.4%.

As to `CC(C)Oc1ccc(-c2ncc(-c3cccc4c3CCC43CCN(C(=O)CO)C3)o2)cc1C#N` (stereo not shown) [Compound 21], in data set [1], the EC50 worked out at 21.7 nM and the maximal response (Emax) turned out to be 70.8%.

What is called bioavailability is dose-corrected exposure relative to a reference, in per cent. In data set [1], `COc1cc(-c2nc(-c3cccc4c3CCC43CCN(CC4(C(=O)O)CC4)C3)no2)cc(C2CCCC2)n1` (stereo not shown) [Compound 40] came in with a concentration giving a half-maximal response (EC50) of 2.82 nM and an Emax of 102%. In data set [2], the Cmax turned out to be 357 ng/mL, the bioavailability is 63.9%, the clearance was found to be 5.47 mL/min/kg and the Vd came to 5.99 L/kg. Further, in data set [2], the AUC(0-t) came out at 7.14 µM·h and the half-life was 8.83 h.

Turning to `CC(C)Oc1ccc(-c2nc(-c3cccc4c3CCC43CCN(C(=O)[C@@H](O)CO)C3)no2)cc1C#N` (stereo partly shown) [Compound 45], in data set [1], a half-maximal response (EC50) required 0.29 nM and the Emax worked out at 126%. In addition, in data set [2], the Cmax amounted to 1180 ng/mL, the bioavailability came to 59.2%, the clearance was 1.59 mL/min/kg and the Vd is 1.94 L/kg. Further, in data set [2], the AUC(0-t) stood at 22.9 µM·h and the half-life was 13.2 h.

Take `CC(C)Oc1ccc(-c2nc(-c3cccc4c3CCC43CCN(C(=O)CN)C3)no2)cc1C#N` (stereo not shown) [Hydrochloride of compound 6]: in data set [1], the EC50 amounted to 0.865 nM and the maximal effect (Emax) was determined as 115%.

On to `CC(C)Oc1ccc(-c2nc(-c3cccc4c3CCC43CCN(CC4(C(=O)O)CCC4)C3)no2)cc1C#N` (stereo not shown) [Hydrochloride of compound 23], for which, in data set [1], the EC50 amounted to 0.0353 nM and the Emax is 68.3%.

Take `CC(C)Oc1ccc(-c2nc(-c3cccc4c3CCC43CCN(CC4(C(=O)O)CC4)C3)ns2)cc1C#N` (stereo not shown) [Hydrochloride of compound 24]: in data set [1], the EC50 was determined as 4.99 nM and the maximal effect (Emax) is 87.1%.

Consider `CC(C)Oc1ccc(-c2ncc(-c3cccc4c3CCC43CCN(CC4(C(=O)O)CC4)C3)cn2)cc1C#N` (stereo not shown) [Hydrochloride of compound 25], for which, in data set [1], the 50% effective concentration (EC50) was 11.5 nM and the Emax came to 82.1%.

In data set [1], `CC(C)Oc1ccc(-c2ncc(-c3cccc4c3CCC43CCN(CC4(C(=O)O)CC4)C3)s2)cc1C#N` (stereo not shown) [Hydrochloride of compound 26] returned an EC50 of 4.47 nM and an Emax of 73.8%.

Turning to `CC(C)Oc1ccc(-c2ncc(-c3cccc4c3CCC43CCN(CC4(C(=O)O)CC4)C3)o2)cc1C#N` (stereo not shown) [Hydrochloride of compound 27], in data set [1], the EC50 is 9.78 nM and the Emax is 63.4%.

Take `CC(C)Oc1ccc(-c2nnc(-c3cccc4c3CCC43CCN(CC4(C(=O)O)CC4)C3)s2)cc1C#N` (stereo not shown) [Hydrochloride of compound 28]: in data set [1], the 50% effective concentration (EC50) was 1.32 nM and the maximal effect (Emax) was 77.7%.

In data set [1], `O=C(O)C1(CN2CCC3(CCc4c(-c5noc(-c6ccc(C7CCCCC7)c(C(F)(F)F)c6)n5)cccc43)C2)CC1` (stereo not shown) [Hydrochloride of compound 37] gave a concentration for a half-maximal effect (EC50) of 0.047 nM and an Emax of 94.1%.

Turning to `O=C(O)C1(CN2CCC3(CCc4c(-c5noc(-c6ccc(C7CCCC7)c(C(F)(F)F)c6)n5)cccc43)C2)CC1` (stereo not shown) [Hydrochloride of compound 38], in data set [1], the midpoint of the response, the EC50, lay at 0.041 nM and the Emax was determined as 100%.

In data set [1], `CC(C)Oc1ncc(-c2nc(-c3cccc4c3CCC43CCN(CC4(C(=O)O)CC4)C3)no2)cc1Cl` (stereo not shown) [Hydrochloride of compound 39] displayed a half-maximal effective concentration (EC50) of 3.46 nM and a maximal effect (Emax) of 144%.

On to `CC(C)Oc1ccc(-c2nc(-c3cccc4c3CCC43CCN(CC4(C(=O)O)CC4)C3)no2)cc1C(F)(F)F` (stereo not shown) [Hydrochloride of compound 43], for which, in data set [1], a half-maximal response (EC50) required 0.1 nM and the maximal effect (Emax) was determined as 108%.

In data set [1], `CC(C)Oc1ccc(-c2nc(-c3cccc4c3CCC43CCN(C(=O)[C@H](O)CO)C3)no2)cc1C#N` (stereo partly shown) [Hydrochloride of compound 44] showed an EC50 of 0.72 nM and a maximal response (Emax) of 104%.

In data set [1], `CC(C)Cc1ccc(-c2nc(-c3cccc4c3CCC43CCN(CC4(C(=O)O)CC4)C3)no2)cc1` (stereo not shown) [Hydrochloride of compound 46] displayed an EC50 of 5.76 nM and an Emax of 105%.
